Data on 26 compounds can be found in patent US20110105500A1, “PYRAZINE SUBSTITUTED PURINES” (S*BIO Pte Ltd., priority 2008, published 2011).

In assay [1] the target is T1, Recombinant PI3K p110α/p85 (Homo sapiens, UniProt P42336).
T1 construct: made in house
In words: PI3K Assay ([γ33P]ATP, PtdIns/PtdSer coated plates). The settings on record: p110α/p85, 2 μM ATP, 1 hour at RT; read-out: IC50 (PI3Kα). Type of assay: biochemical. How it is done:
Recombinant PI3K p110α/p85 was prepared in-house. Phosphatidylinositol (PtdIns), phosphotidylserine (PtdSer) and all other unspecified chemicals were purchased from Sigma-Aldrich. [γ33P]ATP and Optiphase scintillant were obtained from Perkin Elmer.
Assays were performed in a final assay volume of 25 μL in 384-well Maxisorp plates (Nunc). […] Maxisorp plates were coated with 20 μL/well of a 1:1 mixture of PtdIns and PtdSer [0.1 mg/mL each dissolved in chloroform:ethanol (3:7)] and left overnight in a fume hood at room temperature to dry.
The enzyme reaction was created by pipetting 5 μL/well of compound (in 2.5% DMSO), 10 μL/well of enzyme (0.5 μg/mL p110α+1 μg/mL p85), and 10 μL/well of 5 μM ATP with 5 μCi/mL [γ^33P]ATP in assay buffer (final concentrations: 0.2 μg/mL p110α, 2 μM ATP, 0.05 μCi/well [γ^33P]ATP in 1× assay buffer: 100 mM Tris-HCl pH 7.0, 200 mM NaCl, 8 mM MgCl2). The reaction was incubated for 1 hour at RT and terminated with 30 μL/well of 50 mM EDTA solution. The plate was then washed twice with TBS, dried, and added with 30 μL/well of scintillant before it was counted in a MicroBeta Trilux.

The target of assay [2] is T2, Full-length mTOR kinase (Homo sapiens, UniProt P42345).
T2 construct: Full-length mTOR kinase and His-tagged 4eBP1 were produced in-house; made in house
In words: mTOR Assay (phosphorylation of 4eBP1, [γ33P]-ATP filter plate). Type of assay: biochemical. The settings on record: 10 μM ATP, 1 hour at room temperature. How it is done: Full-length mTOR kinase and His-tagged 4eBP1 were produced in-house. [γ^33P]-ATP was purchased from Amersham (GE Healthcare). All chemicals, unless otherwise stated, were from Sigma-Aldrich.
Phosphorylation assays were initially performed in a final volume of 20 μL in 384-well polypropylene plate (Greiner). Compounds were typically tested over the range from 100 μM to 0.006 μM, in 8 step dilutions, in duplicate. 10 μL/well of 2× Enzyme-Substrate solution (1.5 μg/mL mTOR, 40 μg/mL 4eBP1 in 1× assay buffer: 10 mM Hepes pH 7.5, 50 mM NaCl and 10 mM MnCl2) were first added to the sample plate containing 1 μL/well of test compound in neat DMSO. The reaction was initiated by adding 10 μL/well of 20 μM ATP solution (final assay concentration 10 μM ATP and 0.4 μCi/well of [γ^33P]-ATP). After 1 hour incubation at room temperature, the reaction was terminated with 40 μL/well of 20 mM EDTA/1 mM ATP solution.
50 μL/well of the stopped reaction mix was then transferred to 384-well MultiScreenHTS-PH filter plate (Millipore) pre-added with 50 μL/well of 1% phosphoric acid. The plate was washed 4 times with 120 μL/well of 0.5% phosphoric acid via vacuum filtration. Finally, 10 μL/well of Optiphase™ SuperMix liquid scintillation cocktail (Perkin Elmer) was added. After minimum 1 hour of incubation, counting was performed in a Wallac MicroBeta TriLux scintillation counter using coincidence counting mode with crosstalk correction. IC50 is defined as the concentration of compound required for 50% inhibition of kinase enzyme activity.

Assay [3] concerns human breast cancer cell lines. Particulars: cited from earlier work.

T1 sequence (P42336 whole entry): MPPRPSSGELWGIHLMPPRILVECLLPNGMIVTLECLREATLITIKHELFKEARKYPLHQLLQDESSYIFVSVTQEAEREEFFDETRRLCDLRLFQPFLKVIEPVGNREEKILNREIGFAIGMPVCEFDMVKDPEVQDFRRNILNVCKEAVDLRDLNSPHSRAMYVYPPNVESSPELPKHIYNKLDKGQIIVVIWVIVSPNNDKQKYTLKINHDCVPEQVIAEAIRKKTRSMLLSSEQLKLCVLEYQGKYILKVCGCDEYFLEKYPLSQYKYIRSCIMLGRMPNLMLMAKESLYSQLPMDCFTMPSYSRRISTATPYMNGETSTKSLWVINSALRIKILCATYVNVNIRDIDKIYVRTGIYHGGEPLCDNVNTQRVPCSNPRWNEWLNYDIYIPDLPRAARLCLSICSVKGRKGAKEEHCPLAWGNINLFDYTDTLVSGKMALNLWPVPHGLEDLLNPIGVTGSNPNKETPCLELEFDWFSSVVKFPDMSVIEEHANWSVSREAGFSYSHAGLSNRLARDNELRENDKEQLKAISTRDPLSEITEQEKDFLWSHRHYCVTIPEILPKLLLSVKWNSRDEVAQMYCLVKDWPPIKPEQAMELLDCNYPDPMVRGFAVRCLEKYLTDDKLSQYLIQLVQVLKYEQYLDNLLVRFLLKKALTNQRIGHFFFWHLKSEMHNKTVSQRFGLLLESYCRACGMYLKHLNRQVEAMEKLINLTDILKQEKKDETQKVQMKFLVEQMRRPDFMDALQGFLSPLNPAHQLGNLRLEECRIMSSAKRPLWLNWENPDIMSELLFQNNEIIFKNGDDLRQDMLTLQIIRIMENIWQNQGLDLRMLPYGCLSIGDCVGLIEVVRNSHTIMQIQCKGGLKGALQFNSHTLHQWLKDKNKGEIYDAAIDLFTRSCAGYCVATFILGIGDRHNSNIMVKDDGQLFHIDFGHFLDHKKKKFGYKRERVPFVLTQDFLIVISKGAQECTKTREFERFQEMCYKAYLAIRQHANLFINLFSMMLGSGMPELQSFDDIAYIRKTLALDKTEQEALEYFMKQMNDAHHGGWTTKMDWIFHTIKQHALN
T1 sequence (P27986 whole entry partner): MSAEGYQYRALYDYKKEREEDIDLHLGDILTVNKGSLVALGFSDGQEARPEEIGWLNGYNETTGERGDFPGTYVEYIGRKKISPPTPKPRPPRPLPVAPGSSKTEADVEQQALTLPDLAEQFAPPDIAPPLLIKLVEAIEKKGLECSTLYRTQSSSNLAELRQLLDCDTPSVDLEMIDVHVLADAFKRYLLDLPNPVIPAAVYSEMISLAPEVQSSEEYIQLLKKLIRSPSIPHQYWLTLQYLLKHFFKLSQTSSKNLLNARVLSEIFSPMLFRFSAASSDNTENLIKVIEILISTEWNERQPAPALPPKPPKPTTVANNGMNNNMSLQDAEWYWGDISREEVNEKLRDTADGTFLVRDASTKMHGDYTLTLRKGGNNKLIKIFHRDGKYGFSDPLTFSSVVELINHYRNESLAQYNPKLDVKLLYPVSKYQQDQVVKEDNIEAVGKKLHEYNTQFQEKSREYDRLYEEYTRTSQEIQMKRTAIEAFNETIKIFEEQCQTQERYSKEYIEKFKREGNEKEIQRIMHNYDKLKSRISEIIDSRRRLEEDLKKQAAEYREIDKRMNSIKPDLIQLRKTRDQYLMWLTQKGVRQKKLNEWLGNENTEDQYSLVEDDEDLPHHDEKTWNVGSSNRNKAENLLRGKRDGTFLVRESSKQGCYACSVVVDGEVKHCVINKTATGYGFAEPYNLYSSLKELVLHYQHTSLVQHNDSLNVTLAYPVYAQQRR

Broadly, the IC50 is the point on the concentration scale where inhibition reaches its midpoint. In the case of `Nc1cnc(-c2nc(N3CCOCC3)nc3c2ncn3C2CCN(c3ccccc3)CC2)cn1` [Compound 16], the IC50 in assay [1] and in assay [2] was below 1 µM in each case.

With `Nc1cnc(-c2nc(N3CCOCC3)nc3c2ncn3C2CCCC2)cn1` [Compound 5], the IC50 in assay [1] and in assay [2] was below 1 µM each time.

With `Nc1cnc(-c2nc(N3CCOCC3)nc3c2ncn3C2CCc3ccccc32)cn1` (stereo not shown) [Compound 23], the IC50 in assay [1] and in assay [2] was below 1 µM throughout.

On to `Nc1cnc(-c2nc(N3CCOCC3)nc3c2ncn3-c2ccccc2)cn1` [Compound 19], for which the IC50 in assay [1] and in assay [2] was below 1 µM each time.

As for `COCC(C)n1cnc2c(-c3cnc(N)cn3)nc(N3CCOCC3)nc21` (stereo not shown) [Compound 10], the IC50 in assay [1] and in assay [2] was below 1 µM each time.

Regarding `Nc1cnc(-c2nc(N3CCOCC3)nc3c2ncn3C2CCC2)cn1` [Compound 24], the IC50 in assay [1] and in assay [2] was below 1 µM each time.

For `Nc1cnc(-c2nc(N3CCOCC3)nc3[nH]cnc23)cn1` [Compound 17], the IC50 in assay [1] and in assay [2] was below 1 µM in each case.

As for `Cc1cccc(-n2cnc3c(-c4cnc(N)cn4)nc(N4CCOCC4)nc32)c1` [Compound 11, 5-(2-Morpholin-4-yl-9-m-tolyl-9H-purin-6-yl)-pyrazin-2-ylamine], the IC50 in assay [1] and in assay [2] was below 1 µM each time.

As for `Nc1cnc(-c2nc(N3CCOCC3)nc3c2ncn3Cc2ccccc2)cn1` [Compound 6], the IC50 in assay [1] is below 1 µM; in assay [2], 1 to 5 µM.

Turning to `CCC(C)n1c(Br)nc2c(-c3cnc(N)cn3)nc(N3CCOCC3)nc21` (stereo not shown) [Compound 15, 5-(8-Bromo-9-sec-butyl-2-morpholin-4-yl-9H-purin-6-yl)-pyrazin-2-ylamine], the IC50 in assay [1] and in assay [2] was below 1 µM in each case.

`Nc1cnc(-c2nc(N3CCOCC3)nc3c2nc(Br)n3C2CCOC2)cn1` (stereo not shown) [Compound 20]: the IC50 in assay [1] and in assay [2] was below 1 µM throughout.

On to `CC(C)(C)Cn1cnc2c(-c3cnc(N)cn3)nc(N3CCOCC3)nc21` [Compound 22], for which the IC50 in assay [1] and in assay [2] was below 1 µM each time.

Take `CCC(C)n1cnc2c(-c3cnc(N)cn3)nc(N3CCOCC3)nc21` (stereo not shown) [Compound 1, 5-(9-sec-Butyl-2-morpholin-4-yl-9H-purin-6-yl)-pyrazin-2-ylamine]: the IC50 in assay [1] and in assay [2] was below 1 µM each time.

With `Nc1cnc(-c2nc(N3CCOCC3)nc3c2ncn3-c2ccc3c(c2)OCO3)cn1` [Compound 14], the IC50 in assay [1] and in assay [2] was below 1 µM throughout.

For `CC(C)C(C)n1cnc2c(-c3cnc(N)cn3)nc(N3CCOCC3)nc21` (stereo not shown) [Compound 2], the IC50 in assay [1] and in assay [2] was below 1 µM throughout.

As for `CC(C1CC1)n1cnc2c(-c3cnc(N)cn3)nc(N3CCOCC3)nc21` (stereo not shown) [Compound 9], the IC50 in assay [1] and in assay [2] was below 1 µM each time.

With `Nc1cnc(-c2nc(N3CCOCC3)nc3c2ncn3C2CCN(c3ccccc3)C2)cn1` (stereo not shown) [Compound 18], the IC50 in assay [1] and in assay [2] was below 1 µM each time.

On to `Nc1cnc(-c2nc(N3CCOCC3)nc3c2ncn3C2CCc3ccccc3C2)cn1` (stereo not shown) [Compound 13], for which the IC50 in assay [1] and in assay [2] was below 1 µM throughout.

As for `CCC(CC)n1cnc2c(-c3cnc(N)cn3)nc(N3CCOCC3)nc21` [Compound 4], the IC50 in assay [1] and in assay [2] was below 1 µM each time.

For the compound `Nc1cnc(-c2nc(N3CCOCC3)nc3c2ncn3C2Cc3ccccc3C2)cn1` [Compound 21], the IC50 in assay [1] and in assay [2] was below 1 µM in each case.

Turning to `CC1CCCCC1n1cnc2c(-c3cnc(N)cn3)nc(N3CCOCC3)nc21` (stereo not shown) [Compound 25], the IC50 in assay [1] and in assay [2] was below 1 µM throughout.

For the compound `CO[C@H]1C[C@@H]2CC[C@@H](C)[C@@](O)(O2)C(=O)C(=O)N2CCCC[C@H]2C(=O)O[C@H]([C@H](C)C[C@@H]2CC[C@@H](OC(=O)C(C)(CO)CO)[C@H](OC)C2)CC(=O)[C@H](C)/C=C(\C)[C@@H](O)[C@@H](OC)C(=O)[C@H](C)C[C@H](C)/C=C/C=C/C=C/1C` [CCI-779], the “IC50 (sensitive lines)” value in assay [3] (six of eight human breast cancer cell lines) was “low nanomolar range”. Moreover, the IC50 in assay [3] (two resistant lines of eight human breast cancer cell lines) is above 1 µM.

As to `Nc1cnc(-c2nc(N3CCOCC3)nc3c2ncn3CC2CC2)cn1` [Compound 8], the IC50 in assay [1] and in assay [2] was below 1 µM throughout.

As to `Nc1cnc(-c2nc(N3CCOCC3)nc3c2ncn3C2CCOC2)cn1` (stereo not shown) [Compound 12], the IC50 in assay [1] and in assay [2] was below 1 µM throughout.

As to `CCC(C#N)n1cnc2c(-c3cnc(N)cn3)nc(N3CCOCC3)nc21` (stereo not shown) [Compound 3], the IC50 in assay [1] and in assay [2] was below 1 µM throughout.

For the compound `Nc1cnc(-c2nc(N3CCOCC3)nc3c2ncn3Cc2c(F)cccc2F)cn1` [Compound 7, 5-[9-(2,6-Difluoro-benzyl)-2-morpholin-4-yl-9H-purin-6-yl]-pyrazin-2-ylamine], the IC50 in assay [1] and in assay [2] was below 1 µM in each case.
